Target: Human CARM1 (PRMT4) (Homo sapiens (Human), UniProt Q86X55)
Assay: CARM1 enzyme assay on peptide substrate (3H-SAM Flashplate)
Settings: Biochemical potencies, classification codes; read-out: Biochem IC50
Source text: S-adenosylmethionine (SAM), S-adenosylhomocysteine (SAH), bicine, Tween20, dimethylsulfoxide (DMSO), bovine skin gelatin (BSG), sodium butyrate and Tris(2-carboxyethyl)phosphine hydrochloride solution (TCEP) were purchased from Sigma-Aldrich at the highest level of purity possible. ^3H-SAM was purchase from American Radiolabeled Chemicals with a specific activity of 80 Ci/mmol. 384-well streptavidin Flashplates were purchased from PerkinElmer.
Peptide representative of human histone H3 residues 16-30 was synthesized with an N-terminal linker-affinity tag motif and a C-terminal amide cap by 21st Century Biochemicals. […] The sequence was Biot-Ahx-[…]-amide and contained a monomethylated arginine at position 26 (SEQ ID NO.:1).
The gene sequence encoding isoform1 containing a deletion of amino acids 539-561 was amplified subsequently and subcloned into pFastBacMam (Viva Biotech).
Recombinant baculovirus were generated according to Bac-to-Bac kit instructions (Life Technologies). Protein over-expression was accomplished by infecting exponentially growing HEK 293F cell culture at 1.3×10^6cell/ml with virus (MOI=10) in the presence of 8 mM sodium butyrate. Infections were carried out at 37° C. for 48 hours, harvested by centrifugation, and stored at −80° C. for purification.
Expressed full-length human Flag- and His-tagged CARM1 protein was purified from cell paste by anti-flag M2 affinity chromatography with resin equilibrated with buffer containing 20 mM Tris, 150 mM NaCl, 5% glycerol, pH 7.8. Column was washed with 500 mM NaCl in buffer A and Flag-CARM1-His was eluted with 200 ug/ml FLAG peptide in buffer A. Pooled fractions were dialyzed in 20 mM Tris, 150 mM NaCl, 5% glycerol and 1 mM DTT, pH 7.8.
The assays were all performed in a buffer consisting of 20 mM Bicine (pH=7.6), 1 mM TCEP, 0.005% BSG, and 0.002% Tween 20, prepared on the day of use. Compounds in 100% DMSO (1 ul) were spotted into a polypropylene 384-well V-bottom plates (Greiner) using a Platemate Plus outfitted with a 384-channel head (Thermo Scientific). DMSO (1 ul) was added to Columns 11, 12, 23, 24, rows A-H for the maximum signal control and 1 ul of SAH, a known product and inhibitor of CARM1, was added to columns 11, 12, 23, 24, rows I-P for the minimum signal control. A cocktail (40 ul) containing the CARM1 enzyme was added by Multidrop Combi (Thermo-Fisher). The compounds were allowed to incubate with CARM1 for 30 min at room temperature, then a cocktail (10 ul) containing ^3H-SAM and peptide was added to initiate the reaction (final volume=51 ul). The final concentrations of the components were as follows: CARM1 was 0.25 nM, ^3H-SAM was 30 nM, peptide was 250 nM, SAH in the minimum signal control wells was 1 mM, and the DMSO concentration was 2%. The assays were stopped by the addition of non-radiolabeled SAM (10 ul) to a final concentration of 300 uM, which dilutes the ^3H-SAM to a level where its incorporation into the peptide substrate is no longer detectable. 50 ul of the reaction in the 384-well polypropylene plate was then transferred to a 384-well Flashplate and the biotinylated peptides were allowed to bind to the streptavidin surface for at least 1 hour before being washed once with 0.1% Tween20 in a Biotek ELx405 plate washer. The plates were then read in a PerkinElmer TopCount plate reader to measure the quantity of ^3H-labeled peptide bound to the Flashplate surface, measured as disintegrations per minute (dpm) or alternatively, referred to as counts per minute (cpm).
where dpm=disintegrations per minute, cmpd=signal in assay well, and min and max are the respective minimum and maximum signal controls.
where top and bottom are the normally allowed to float, but may be fixed at 100 or 0 respectively in a 3-parameter fit. The Hill Coefficient normally allowed to float but may also be fixed at 1 in a 3-parameter fit. Y is the % inhibition and X is the compound concentration.

Chain of Human CARM1 (PRMT4) (Q86X55 other isoform, or with tags, fused parts or gaps isoform Q86X55-1): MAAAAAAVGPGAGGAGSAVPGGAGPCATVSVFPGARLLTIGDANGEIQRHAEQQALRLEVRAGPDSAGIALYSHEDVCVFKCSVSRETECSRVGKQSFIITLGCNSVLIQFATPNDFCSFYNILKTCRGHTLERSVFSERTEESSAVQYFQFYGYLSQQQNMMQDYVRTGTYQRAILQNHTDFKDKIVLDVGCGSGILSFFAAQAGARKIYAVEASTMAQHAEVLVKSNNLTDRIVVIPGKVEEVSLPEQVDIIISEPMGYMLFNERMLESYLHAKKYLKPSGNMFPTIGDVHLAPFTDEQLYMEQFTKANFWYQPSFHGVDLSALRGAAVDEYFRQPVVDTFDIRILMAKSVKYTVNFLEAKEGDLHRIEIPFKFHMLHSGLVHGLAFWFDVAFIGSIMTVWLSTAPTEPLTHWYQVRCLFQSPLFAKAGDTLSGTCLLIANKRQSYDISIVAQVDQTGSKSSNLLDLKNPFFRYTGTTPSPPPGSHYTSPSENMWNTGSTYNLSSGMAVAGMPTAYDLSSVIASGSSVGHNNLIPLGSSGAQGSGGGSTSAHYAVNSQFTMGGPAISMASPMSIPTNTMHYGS

IC50 [nM] | Structure (SMILES)
< 100 | CNCC(O)COc1cccc(-c2nc(-c3ccncc3)cc(N(C)C3CCOCC3)n2)c1 (stereo not drawn) [Example 1-1]
< 100 | CNCC(O)COc1cccc(-c2nc(-c3c(C)noc3C)cc(N(C)C3CCOCC3)n2)c1 (stereo not drawn) [Example 1-1a]
< 100 | CNCC(O)COc1cccc(-c2nc(NC3CNC3)c(C)c(-c3c(C)noc3C)n2)c1 (stereo not drawn) [Example 1-3]
< 100 | CNCC(O)COc1cccc(-c2cc(N(C)C3CCOCC3)nc(-c3ccncc3)n2)c1 (stereo not drawn) [Example 2-1]
< 100 | CCc1nc(-c2cccc(OCC(O)CNC)c2)cc(N(C)C2CCOCC2)n1 (stereo not drawn) [Example 2-2]
< 100 | CNCC(O)COc1ccc(Cl)c(-c2nc(NC[C@H]3COCCN3C3COC3)c(C)c(-c3c(C)noc3C)n2)c1 (stereo partly drawn) [Example 2-3]
< 100 | CNCC(O)COc1cccc(-c2nc(N[C@@H]3CCOC3)c(C)c(N3CCOCC3)n2)c1 (stereo partly drawn) [Example 3-1]
< 100 | CNCC(O)COc1cccc(-c2nc(-c3c(C)noc3C)cc(-c3c(C)noc3C)n2)c1 (stereo not drawn) [Example 3-1a]
< 100 | CNCC(O)COc1cccc(-c2nc(NC3CC(F)C3)c(C)c(-c3c(C)noc3C)n2)c1 (stereo not drawn) [Example 3-3]
> 10000 | CNCC(O)COc1cccc(-c2nccc(NC3CCOCC3)n2)c1 (stereo not drawn) [Example 4-1]
< 100 | CNCC(O)COc1cc(Cl)cc(-c2nc(-c3c(C)noc3C)cc(-c3c(C)noc3C)n2)c1 (stereo not drawn) [Example 4-1a]
< 100 | CNCC(O)COc1cccc(-c2cc(N(C)C3CCOCC3)nc(C3CC3)n2)c1 (stereo not drawn) [Example 4-2]
< 100 | CNCC(O)COc1ccc(Cl)c(-c2nc(N[C@H]3CCN(C(=O)OC)C[C@H]3F)c(C)c(-c3c(C)noc3C)n2)c1 (stereo partly drawn) [Example 4-3]
< 100 | CNCC(O)COc1cccc(-c2nc(-c3c(C)noc3C)cc(N(C)CCC#N)n2)c1 (stereo not drawn) [Example 5-1a]
< 100 | C=C(C)c1nc(-c2cccc(OCC(O)CNC)c2)cc(N(C)C2CCOCC2)n1 (stereo not drawn) [Example 5-2]
< 100 | CNCC(O)COc1cccc(-c2nc(NC3(CO)CC3)c(C)c(-c3c(C)noc3C)n2)c1 (stereo not drawn) [Example 5-3]
< 100 | CNCC(O)COc1cccc(-c2nc(NC3CCOCC3)c(C)c(-c3c(C)noc3C)n2)c1 (stereo not drawn) [Example 6-1a]
< 100 | CNCC(O)COc1cccc(-c2cc(N(C)C3CCOCC3)nc(C(C)C)n2)c1 (stereo not drawn) [Example 6-2]
< 100 | CNCC(O)COc1ccc(Cl)c(-c2nc(NC[C@H]3CCCO3)c(C)c(-c3c(C)noc3C)n2)c1 (stereo partly drawn) [Example 6-3]

IC50 [nM] | Structure (SMILES)
< 100 | CNCC(O)COc1cc(Cl)cc(-c2nc(NC3CCOCC3)cc(-c3c(C)noc3C)n2)c1 (stereo not drawn) [Example 7-1a]
< 100 | CNCC(O)COc1ccc(Cl)c(-c2nc(NC[C@@H]3CCCO3)c(C)c(-c3c(C)noc3C)n2)c1 (stereo partly drawn) [Example 7-3]
< 100 | CNCC(O)COc1cccc(-c2nc(-c3cncnc3)cc(-c3c(C)noc3C)n2)c1 (stereo not drawn) [Example 8-1a]
< 100 | CNCC(O)COc1cccc(-c2cc(N(C)C3CCOCC3)nc(N(C)C)n2)c1 (stereo not drawn) [Example 8-2]
< 100 | CNCC(O)COc1cccc(-c2nc(NC3(C(F)(F)F)CC3)c(C)c(-c3c(C)noc3C)n2)c1 (stereo not drawn) [Example 8-3]
< 100 | CNCC(O)COc1cccc(-c2nc(C3=CCCC3)cc(N(C)CCC#N)n2)c1 (stereo not drawn) [Example 9-1]
< 100 | CNCC(O)COc1cc(Cl)cc(-c2nc(Nc3cncnc3)cc(-c3c(C)noc3C)n2)c1 (stereo not drawn) [Example 9-1a]
< 100 | CNCC(O)COc1ccc(Cl)c(-c2nc(NCC3CCOCC3)c(C)c(-c3c(C)noc3C)n2)c1 (stereo not drawn) [Example 9-3]
< 100 | CNCC(O)COc1cccc(-c2nc(C3CC3)cc(N(C)C3CCOCC3)n2)c1 (stereo not drawn) [Example 10-1]
< 100 | CNCC(O)COc1cc(Cl)cc(-c2nc(N[C@@H]3CCOC3)cc(-c3c(C)noc3C)n2)c1 (stereo partly drawn) [Example 10-1a]
< 100 | CNCC(O)COc1cccc(-c2nc(N[C@H]3CCC[C@@H](O)C3)c(C)c(-c3c(C)noc3C)n2)c1 (stereo partly drawn) [Example 10-3]
< 100 | C=C(C)c1cc(N(C)C2CCOCC2)nc(-c2cccc(OCC(O)CNC)c2)n1 (stereo not drawn) [Example 11-1]
< 100 | CNCC(O)COc1cccc(-c2nc(N[C@@H]3CCOC3)cc(-c3c(C)noc3C)n2)c1 (stereo partly drawn) [Example 11-1a]
< 100 | CNCC(O)COc1cccc(-c2nc(N[C@@H]3CCOC3)c(C)c(N3CC4CN(S(C)(=O)=O)CC4C3)n2)c1 (stereo partly drawn) [Example 11-3]
< 100 | CNCC(O)COc1cc(Cl)cc(-c2nc(N[C@H]3CCOC3)cc(-c3c(C)noc3C)n2)c1 (stereo partly drawn) [Example 12-1a]
< 100 | CNCC(O)COc1cccc(-c2nc(-c3c(C)noc3C)c(C)c(N3CC(NC(=O)OC)C3)n2)c1 (stereo not drawn) [Example 12-3]
< 100 | CNCC(O)COc1cccc(-c2nc(C(C)C)cc(N(C)C3CCOCC3)n2)c1 (stereo not drawn) [Example 13-1]
< 100 | CNCC(O)COc1cccc(-c2nc(N[C@H]3CCOC3)cc(-c3c(C)noc3C)n2)c1 (stereo partly drawn) [Example 13-1a]
< 100 | CNCC(O)COc1cccc(-c2nc(-c3c(C)noc3C)c(C)c(N3CC(NC(=O)N(C)C)C3)n2)c1 (stereo not drawn) [Example 13-3]

IC50 [nM] | Structure (SMILES)
< 100 | NCC(O)COc1cccc(-c2nc(N3CCOCC3)cc(N3CCOCC3)n2)c1 (stereo not drawn) [Example 14-1]
< 100 | CNCC(O)COc1cccc(-c2cc(N(C)C3CCOCC3)nc(-c3cccnc3)n2)c1 (stereo not drawn) [Example 14-2]
< 100 | CCC(=O)NC1CN(c2nc(-c3cccc(OCC(O)CNC)c3)nc(-c3c(C)noc3C)c2C)C1 (stereo not drawn) [Example 14-3]
< 100 | CNCC(O)COc1cccc(-c2nc(N(C)C)cc(N(C)C3CCOCC3)n2)c1 (stereo not drawn) [Example 15-1]
< 100 | Cc1noc(C)c1-c1cc(NC2CCOCC2)nc(-c2cccc(OC[C@@H](O)CN)c2)n1 [Example 15-1a]
< 100 | CNCC(O)COc1cccc(-c2cc(N(C)C3CCOCC3)nc(N3CCOCC3)n2)c1 (stereo not drawn) [Example 15-2]
< 100 | CNCC(O)COc1cccc(-c2nc(-c3c(C)noc3C)c(C)c(N3CCC[C@H](N(C)C(=O)OC)C3)n2)c1 (stereo partly drawn) [Example 15-3]
< 100 | Cc1noc(C)c1-c1cc(NC2CCOCC2)nc(-c2cccc(OC[C@H](O)CN)c2)n1 [Example 16-1a]
< 100 | CNCC(O)COc1cccc(-c2cc(N(C)C3CCOCC3)nc(-c3cnc4[nH]ccc4c3)n2)c1 (stereo not drawn) [Example 16-2]
< 100 | CCS(=O)(=O)N1CC2(CN(c3nc(-c4cccc(OCC(O)CNC)c4)nc(-c4c(C)noc4C)c3C)C2)C1 (stereo not drawn) [Example 16-3]
< 100 | CNC[C@H](O)COc1cccc(-c2nc(NC3CCOCC3)cc(-c3c(C)noc3C)n2)c1 [Example 17-1a]
< 100 | CNCC(O)COc1cccc(-c2nc(-c3c(C)noc3C)c(C)c(N3CCN(C(=O)OC)C(C(F)F)C3)n2)c1 (stereo not drawn) [Example 17-3]
< 100 | CNCC(O)COc1cccc(-c2nc(-c3cncnc3)cc(N(C)CCC#N)n2)c1 (stereo not drawn) [Example 18-1]
< 100 | CNC[C@@H](O)COc1cccc(-c2nc(NC3CCOCC3)cc(-c3c(C)noc3C)n2)c1 [Example 18-1a]
< 100 | CNCC(O)COc1cccc(-c2nc(Nc3nccn3C)c(C)c(-c3c(C)noc3C)n2)c1 (stereo not drawn) [Example 18-3]
< 100 | CNCC(O)COc1cccc(-c2nc(N(C)C3CCOCC3)cc(C3(C)CC3)n2)c1 (stereo not drawn) [Example 19-1]
< 100 | CNCC(O)COc1cccc(-c2nc(-c3c(C)noc3C)cc(N3CCN(C)CC3)n2)c1 (stereo not drawn) [Example 19-1a]
< 100 | CNCC(O)COc1cccc(-c2nc(N[C@H]3C[C@@](C)(OC)C3)c(C)c(-c3c(C)noc3C)n2)c1 (stereo partly drawn) [Example 19-3]
< 100 | CNCC(O)COc1cccc(-c2nc(NCCOC)cc(-c3c(C)noc3C)n2)c1 (stereo not drawn) [Example 20-1]

Source: patent US20230279020A9, “CARM1 INHIBITORS AND USES THEREOF” (Epizyme, Inc., priority 2013, published 2023)
